Reference: ChEMBL document CHEMBL1201862, “PubChem BioAssay data set” (2004)
“And” between values parts separate entries of the source, which are not always exact repeats. Equal values may be shown once.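 Values below derive from 48-hour exposures of cells grown in 96-well plates, with endpoints linearly interpolated between the two concentrations bracketing the appropriate inhibition level. The concentration for 50% growth inhibition is given as GI50.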 The source made the active and inactive calls. Cut-off read from the data, not from the text of the source: active = GI50 up to about 1.1 µM and inactive = higher.

Legend:
Experiment in all cases: NCI-60 cell line screen, 48 h
[1] = tested on: SK-MEL-28
[2] = tested on: DMS-114
[3] = tested on: HL-60
[4] = tested on: NCI-H226
[5] = tested on: RPMI-8226
[6] = tested on: U-251
[7] = tested on: COLO 205
[8] = tested on: ACHN
[9] = tested on: MOLT-4
[10] = tested on: UACC-62
[11] = tested on: EKVX
[12] = tested on: K562
[13] = tested on: KM12
[14] = tested on: SNB-78
[15] = tested on: MDA-MB-435
[16] = tested on: M19-MEL
[17] = tested on: MDA-MB-231
[18] = tested on: RXF 393
[19] = tested on: A549
[20] = tested on: OVCAR-8
[21] = tested on: Malme-3M
[22] = tested on: UO-31
[23] = tested on: SF-539
[24] = tested on: HOP-18
[25] = tested on: HOP-62
[26] = tested on: HCT-116
[27] = tested on: CAKI-1
[28] = tested on: DLD-1
[29] = tested on: IGROV-1
[30] = tested on: OVCAR-4
[31] = tested on: SK-MEL-5
[32] = tested on: NCI/ADR-RES
[33] = tested on: HCC 2998
[34] = tested on: RXF 631
[35] = tested on: DMS-273
[36] = tested on: SNB-19
[37] = tested on: TK-10
[38] = tested on: NCI-H23
[39] = tested on: SK-OV-3
[40] = tested on: NCI-H522
[41] = tested on: SK-MEL-2
[42] = tested on: SF-268
[43] = tested on: HCT-15
[44] = tested on: HT-29
[45] = tested on: NCI-H460
[46] = tested on: 786-0
[47] = tested on: DU-145
[48] = tested on: OVCAR-3
[49] = tested on: MDA-N
[50] = tested on: M14
[51] = tested on: BT-549
[52] = tested on: CCRF-CEM
[53] = tested on: PC-3
[54] = tested on: T47D
[55] = tested on: Hs-578T
[56] = tested on: SNB-75
[57] = tested on: OVCAR-5
[58] = tested on: LOX IMVI
[59] = tested on: SN12C
[60] = tested on: SF-295
[61] = tested on: A498
[62] = tested on: SR
[63] = tested on: HOP-92
[64] = tested on: LXFL 529
[65] = tested on: UACC-257
[66] = tested on: KM-20L2
[67] = tested on: SW-620
[68] = tested on: MCF7
[69] = tested on: XF498

COC(=O)Cc1cc(O)c2c(c1O)C(=O)c1ccccc1C2=O
GI50 [1]: > 100 µM (inactive) | GI50 [2]: > 100 µM (inactive) | GI50 [3]: > 94.6 µM (inactive) | GI50 [4]: 92.3 µM (inactive) | GI50 [5]: > 67.5 µM (inactive) | GI50 [6]: 27.9 µM (inactive) | GI50 [7]: > 100 µM (inactive) | GI50 [8]: > 57.1 µM (inactive) | GI50 [9]: > 84.5 µM (inactive) | GI50 [10]: > 100 µM (inactive) | GI50 [11]: > 94.2 µM (inactive) | GI50 [12]: > 100 µM (inactive) | GI50 [13]: > 100 µM (inactive) | GI50 [14]: 37.6 µM (inactive) | GI50 [15]: > 100 µM (inactive) | GI50 [16]: > 100 µM (inactive) | GI50 [17]: 26.5 µM (inactive) | GI50 [18]: 30.3 µM (inactive) | GI50 [19]: > 100 µM (inactive) | GI50 [20]: > 100 µM (inactive) | GI50 [21]: > 74 µM (inactive) | GI50 [22]: > 100 µM (inactive) | GI50 [23]: 35.9 µM (inactive) | GI50 [24]: > 100 µM (inactive) | GI50 [25]: 24.3 µM (inactive) | GI50 [26]: > 71 µM (inactive) | GI50 [27]: > 100 µM (inactive) | GI50 [28]: > 100 µM (inactive) | GI50 [29]: > 83.8 µM (inactive) | GI50 [30]: > 100 µM (inactive) | GI50 [31]: 68.2 µM (inactive) | GI50 [32]: 71.9 µM (inactive) | GI50 [33]: > 100 µM (inactive) | GI50 [34]: 35.6 µM (inactive) | GI50 [35]: > 100 µM (inactive) | GI50 [36]: 38.5 µM (inactive) | GI50 [37]: 39.4 µM (inactive) | GI50 [38]: > 56 µM (inactive) | GI50 [39]: 58.3 µM (inactive) | GI50 [40]: > 100 µM (inactive) | GI50 [41]: > 67.5 µM (inactive) | GI50 [42]: 51.1 µM (inactive) | GI50 [43]: > 100 µM | GI50 [44]: > 46.5 µM (inactive) | GI50 [45]: > 100 µM (inactive) | GI50 [46]: 21.5 µM (inactive) | GI50 [47]: > 96.2 µM (inactive) | GI50 [48]: > 71.9 µM (inactive) | GI50 [49]: > 100 µM (inactive) | GI50 [50]: > 100 µM (inactive) | GI50 [51]: > 62.4 µM (inactive) | GI50 [52]: > 52.6 µM (inactive) | GI50 [53]: > 100 µM (inactive) | GI50 [54]: > 100 µM (inactive) | GI50 [55]: 34 µM (inactive) | GI50 [56]: 20.6 µM (inactive) | GI50 [57]: > 100 µM (inactive) | GI50 [58]: 99.1 µM (inactive) | GI50 [59]: 99.5 µM (inactive) | GI50 [60]: 27.6 µM (inactive) | GI50 [61]: 48.1 µM (inactive) | GI50 [62]: > 100 µM (inactive) | GI50 [63]: 16.1 µM (inactive) | GI50 [64]: 71.4 µM (inactive) | GI50 [65]: > 100 µM (inactive) | GI50 [66]: > 100 µM (inactive) | GI50 [67]: > 100 µM (inactive)

C/C=C(\CCC1NCCc2c1[nH]c1ccccc21)[Si](C)(C)C (centres undefined)
GI50 [4]: 10.9 µM (inactive) and 7.76 µM (inactive) | GI50 [7]: 14.3 µM (inactive) and 1.8 µM (inactive) | GI50 [9]: 2.74 µM (inactive) and 4.35 µM (inactive) | GI50 [10]: 5.86 µM (inactive) and 5.27 µM (inactive) | GI50 [11]: 14.7 µM (inactive) and 8.41 µM (inactive) | GI50 [12]: 3.57 µM (inactive) and 6.67 µM (inactive) | GI50 [14]: 4.9 µM (inactive) and 9.31 µM (inactive) | GI50 [15]: 3.37 µM (inactive) | GI50 [17]: 2.14 µM (inactive) | GI50 [19]: 10.1 µM (inactive) and 6.59 µM (inactive) | GI50 [20]: 4.16 µM (inactive) and 7.82 µM (inactive) | GI50 [21]: 1.77 µM (inactive) and 1.21 µM (inactive) | GI50 [24]: 6.79 µM (inactive) and 20.1 µM (inactive) | GI50 [25]: 11.9 µM (inactive) and 14.5 µM (inactive) | GI50 [28]: 3.49 µM (inactive) and 6.24 µM (inactive) | GI50 [30]: 3.03 µM (inactive) and 5.81 µM (inactive) | GI50 [34]: 5.05 µM (inactive) and 7.28 µM (inactive) | GI50 [39]: 13.4 µM (inactive) and 10.1 µM (inactive) | GI50 [42]: 11.2 µM (inactive) and 5.96 µM (inactive) | GI50 [43]: 18.7 µM and 2.25 µM | GI50 [47]: 12.6 µM (inactive) | GI50 [49]: 2.09 µM (inactive) | GI50 [51]: 10.8 µM (inactive) | GI50 [53]: 5.01 µM (inactive) | GI50 [54]: 2.22 µM (inactive) | GI50 [55]: 2.05 µM (inactive) | GI50 [56]: 5.97 µM (inactive) and 6.5 µM (inactive) | GI50 [58]: 2.28 µM (inactive) and 20.3 µM (inactive) | GI50 [68]: 2.02 µM (inactive) | GI50 [69]: 1.41 µM (inactive) and 1.8 µM (inactive) | GI50 [59]: 5.89 µM (inactive) and 3.32 µM (inactive) | GI50 [61]: 2.67 µM (inactive) and 6.5 µM (inactive) | GI50 [64]: 1.78 µM (inactive) and 5.01 µM (inactive)

N=C(N)NNC(=O)CCn1[nH]c(=O)c(Cl)c(Cl)c1=O
GI50 [1]: > 100 µM (inactive) | GI50 [2]: > 100 µM (inactive) | GI50 [3]: > 100 µM (inactive) | GI50 [4]: > 100 µM (inactive) | GI50 [5]: > 100 µM (inactive) | GI50 [6]: > 100 µM (inactive) | GI50 [7]: > 100 µM (inactive) | GI50 [8]: > 100 µM (inactive) | GI50 [9]: > 100 µM (inactive) | GI50 [10]: > 100 µM (inactive) | GI50 [11]: > 100 µM (inactive) | GI50 [12]: > 100 µM (inactive) | GI50 [13]: > 100 µM (inactive) | GI50 [16]: > 100 µM (inactive) | GI50 [18]: > 100 µM (inactive) | GI50 [19]: > 100 µM (inactive) | GI50 [20]: > 100 µM (inactive) | GI50 [21]: > 100 µM (inactive) | GI50 [22]: > 100 µM (inactive) | GI50 [23]: > 100 µM (inactive) | GI50 [24]: > 100 µM (inactive) | GI50 [25]: > 100 µM (inactive) | GI50 [27]: > 100 µM (inactive) | GI50 [28]: > 100 µM (inactive) | GI50 [29]: > 100 µM (inactive) | GI50 [30]: > 100 µM (inactive) | GI50 [31]: > 100 µM (inactive) | GI50 [33]: > 100 µM (inactive) | GI50 [34]: > 100 µM (inactive) | GI50 [35]: > 100 µM (inactive) | GI50 [36]: > 100 µM (inactive) | GI50 [37]: > 100 µM (inactive) | GI50 [38]: > 100 µM (inactive) | GI50 [39]: > 100 µM (inactive) | GI50 [40]: > 100 µM (inactive) | GI50 [41]: > 100 µM (inactive) | GI50 [42]: > 100 µM (inactive) | GI50 [43]: > 100 µM | GI50 [44]: > 100 µM (inactive) | GI50 [45]: > 100 µM (inactive) | GI50 [46]: > 100 µM (inactive) | GI50 [48]: > 100 µM (inactive) | GI50 [50]: > 100 µM (inactive) | GI50 [52]: > 100 µM (inactive) | GI50 [56]: > 100 µM (inactive) | GI50 [57]: > 100 µM (inactive) | GI50 [58]: > 100 µM (inactive) | GI50 [69]: > 100 µM (inactive) | GI50 [59]: > 100 µM (inactive) | GI50 [60]: > 100 µM (inactive) | GI50 [64]: > 100 µM (inactive) | GI50 [65]: > 100 µM (inactive) | GI50 [66]: > 100 µM (inactive) | GI50 [67]: > 100 µM (inactive)
